Data taken from patent publication US10105362B2, “Anti-tumor use of anagrelide and derivatives thereof” (SHANGHAI INSTITUTE OF MATERIA MEDICA, CHINESE ACADEMY OF …, priority 2013, dated 2018).
Entries after “also recorded” stand apart in the source; their conditions may differ.

Tests used:
SMMC7721 cells [1] = test: RTCA real-time monitoring of cell growth; format: cell-based, human; conditions: 100 nM, within 72 hours
Description: (§1) A real-time monitor from Roche was used to detect growth of cells. […] Logarithmic growth phase cells were digested with trypsin, centrifuged and resuspended, and were seeded at 3.5×10^4 /mL per well in 16-well plate matching to cell supporting real-time monitor, and the compound was dosed after 37° C. overnight incubation. Real-time monitoring was used to automatically detect the status of cell growth, and the cell number was reflected by the size of the resistance formed after cell spreading. The larger the cell index value, the faster the cell growth, and the more the number of cells. To further examine Anagrelide inhibition of cell growth, Hela, H4, FHCC98, SMMC7721, BEL7404, A498, SW1116 were taken for further experiment. Through cell real-time monitoring device, real-time monitoring of cell growth status change within 72 hours after Anagrelide administration was conducted (FIG. 3). 3000 cells/100 uL were plated, cultivated overnight, and 100 nM Anagrelide was added. The growth of cells was detected with real-time monitor.

HeLa cells [2] = test: RTCA real-time monitoring of cell growth; format: cell-based, human; conditions: 100 nM, within 72 hours
Description: as §1

A498 cells [3] = test: RTCA real-time monitoring of cell growth; format: cell-based, human; conditions: 100 nM, within 72 hours
Description: as §1

Bel7404 cells [4] = test: RTCA real-time monitoring of cell growth; format: cell-based, human; conditions: 100 nM, within 72 hours
Description: as §1

SW1116 cells [5] = test: RTCA real-time monitoring of cell growth; format: cell-based, human; conditions: 100 nM, within 72 hours
Description: as §1

H4 cells [6] = test: RTCA real-time monitoring of cell growth; format: cell-based, human; conditions: 100 nM, within 72 hours
Description: as §1

FHCC98 cells [7] = test: RTCA real-time monitoring of cell growth; format: cell-based, human; conditions: 100 nM, within 72 hours
Description: as §1

SMMC7721 cells [8] = test: Cell cycle distribution by PI staining and flow cytometry; format: cell-based, human; conditions: 100 nM, 24 hours
Description: (§2) Logarithmic growth phase cells were seeded in 6-well culture plate in 5×10^5/mL concentration, 1.5 mL of culture medium in each well, and cultured overnight. Different concentrations of drugs were added to stimulate for a certain time, and then the cells were collected into 1.5 mL EP tube. The cells were washed with cold PBS for 1-2 times, little PBS (about 200 ul) was added and blown to uniform. 1 mL 75% ethanol was pre-cooled (prepared with PBS), and cells was added dropwise into alcohol solution which was oscillated on shaker, fixed under 4° C. overnight. After 1000rpm centrifuged for 5 min, the supernatant was discarded and 1-2 mL PBS was added to wash twice. The cells were suspended with 0.5 mL RnaseA (1.0 mg/ml), and digested under 37° C. for 1 h. The cells were resuspended with 0.5 mL 25 ug/mL PI dye liquor, and were kept in dark place under 4° C. for 30 min. The cells were filtered with 300 mesh sieve, and the cell cycle distribution was analyzed with flow cytometry.
(§3) In order to determine whether Anagrelide had affected the cell cycle of tumor cells, SMMC7721, HeLa, SW1116 were taken as example to represent sensitive cells and relatively sensitive cells to detect the effect on cell cycle of Anagrelide by PI staining and flow cytometry (FIG. 4 and FIG. 5).

HeLa cells [9] = test: as above; format: cell-based, human; conditions: 100 nM, 24 hours
Description: as §2, §3

SW1116 cells [10] = test: as above; format: cell-based, human; conditions: 100 nM, 24 hours
Description: as §2, §3

non-sensitive cell lines = test: Growth inhibition of non-sensitive cell lines (summary statement); format: cell-based; conditions: concentration raised up to 1 mM/L
A498 cells [11] = test: Cell cycle arrest (summary of experiments); format: cell-based, human
Description: as §2

Bel7404 cells [12] = test: Cell cycle arrest (summary of experiments); format: cell-based, human
Description: as §2

H4 cells [13] = test: Cell cycle arrest (summary of experiments); format: cell-based, human
Description: as §2

FHCC98 cells [14] = test: Cell cycle arrest (summary of experiments); format: cell-based, human
Description: as §2

tumor cells = test: Growth inhibition of tumor cells (summary statement); format: cell-based; conditions: 10 nM/L
[15] = tested on: PARP cleavage in H4 cells; test: PARP cleavage by Western Blotting (apoptosis); format: cell-based, human; conditions: 100 nM, different time points
Excerpt: (§4) 1) Vertical electrophoretic separation of proteins: 8%-10% SDS-polyacrylamide (SDA-PAGE) gel electrophoresis separation, 5% stacking gel. The voltage for stacking gel was 80V, separation gel separation voltage for separating gel was 120V, and electrophoresis was stopped when bromophenol blue indicator ran to the bottom; 2) membrane transferring: semi-dry transferring: transmembrane voltage was 10-15V, and the time was adjusted according to the size of the protein; 3) pre-stained with Ponceau to observe transmembrane effect; 4) blocking: It was blocked with 5% skim milk in TBST and oscillated on Decolorization shaker at room temperature for 1 hour; 5) the binding with first antibody: The antibody was diluted at 1: 2000 to 1: 10000 in TBST containing 5% BSA, oscillated on decolorization shaker 1 hour under room temperature for binding, and placed at 4° C. overnight. TBST was used to wash for three times, and 10 minutes for each time. 6) the binding with secondary antibody: The antibody was diluted at 1:5000 to 1:10000 in TBST containing 5% BSA, and oscillated on decolorization shaker 1 hour for binding under room temperature. TBST was used to wash for three times, and 10 minutes for each time. ECL developing kit was used to treat substrate for 2-3 minutes, detected for chemiluminescence, and exposed on X-ray film. […] The PARP cleavage was detected by Western Blotting.

[16] = tested on: PARP cleavage in FHCC 98 cells; test: PARP cleavage by Western Blotting (apoptosis); format: cell-based, human; conditions: 100 nM, different time points
Excerpt: as §4

## O=C1CN2Cc3c(ccc(Cl)c3Cl)N=C2N1 [Anagrelide, 6,7-dichloro-1,5-dihydro-imidazo [2,1-b] quinazolin-2 (3H)-one]
SMMC7721 cells [1]
  cell growth status, real-time monitoring: ultimately induced the cell death
HeLa cells [2]
  cell growth status, real-time monitoring: ultimately induced the cell death
A498 cells [3]
  cell growth status, real-time monitoring: did not cause the cell apoptosis within 72 hours, but the growth was suppressed
Bel7404 cells [4]
  cell growth status, real-time monitoring: did not cause the cell apoptosis within 72 hours, but the growth was suppressed
SW1116 cells [5]
  cell growth status, real-time monitoring: did not cause the cell apoptosis within 72 hours, but the growth was suppressed
H4 cells [6]
  cell growth status, real-time monitoring: ultimately induced the cell death
FHCC98 cells [7]
  cell growth status, real-time monitoring: ultimately induced the cell death
SMMC7721 cells [8]
  effect on cell cycle (cycle arrest): a significant G1, G2 cycle arrest was produced; also recorded: the cycle arrest was very strong
HeLa cells [9]
  effect on cell cycle (cycle arrest): a significant G1, G2 cycle arrest was produced; also recorded: the cycle arrest was very strong
SW1116 cells [10]
  effect on cell cycle (cycle arrest): a relatively weaker effect of cycle arresting; also recorded: a significant cycle arrest phenomenon was produced
non-sensitive cell lines
  growth inhibition of non-sensitive cell lines: does not have any growth inhibition effect
A498 cells [11]
  effect on cell cycle (cycle arrest): a significant cycle arrest phenomenon was produced
Bel7404 cells [12]
  effect on cell cycle (cycle arrest): a significant cycle arrest phenomenon was produced
H4 cells [13]
  effect on cell cycle (cycle arrest): the cycle arrest was very strong
FHCC98 cells [14]
  effect on cell cycle (cycle arrest): the cycle arrest was very strong
Tumor cells
  growth inhibition of tumor cells: obviously inhibit the growth of tumor cells
[15]
  PARP cleavage: PARP cleavage was gradually increased with time
[16]
  PARP cleavage: PARP cleavage was gradually increased with time
